From patent US4876266A, “1-aralkyl-2-mercaptoimidazolines as DBH inhibitors” (SmithKline Beckman Corporation, priority 1987, dated 1989)

Columns and labels:
[1] = system: spontaneously hypertensive rats; test: mean arterial blood pressure in spontaneously hypertensive rats, indwelling cannulae in the tail arteries; format: in vivo, rat; conditions: 50 mg/kg orally; within approximately
Method: Further, spontaneously hypertensive rats were treated with a suspension or solution of 1-(3,5-difluorobenzyl)-2-mercaptoimidazoline at a dose of 50 mg/kg orally and mean arterial blood pressure was monitored for 260 minutes using indwelling cannulae in the tail arteries. […] Maximum blood pressure reduction was approximately 15 to 20 mm Hg.

[2] = target: T1, dopamine-β-hydroxylase (DBH) (Bos taurus, UniProt P15101); test: in vitro DBH inhibition, conversion of tyramine to octopamine in the presence of DBH, spectrophotometric absorbance at 330 nm; format: biochemical; conditions: concentration of compound at which DBH activity was halved
T1 sequence (P15101 1-610): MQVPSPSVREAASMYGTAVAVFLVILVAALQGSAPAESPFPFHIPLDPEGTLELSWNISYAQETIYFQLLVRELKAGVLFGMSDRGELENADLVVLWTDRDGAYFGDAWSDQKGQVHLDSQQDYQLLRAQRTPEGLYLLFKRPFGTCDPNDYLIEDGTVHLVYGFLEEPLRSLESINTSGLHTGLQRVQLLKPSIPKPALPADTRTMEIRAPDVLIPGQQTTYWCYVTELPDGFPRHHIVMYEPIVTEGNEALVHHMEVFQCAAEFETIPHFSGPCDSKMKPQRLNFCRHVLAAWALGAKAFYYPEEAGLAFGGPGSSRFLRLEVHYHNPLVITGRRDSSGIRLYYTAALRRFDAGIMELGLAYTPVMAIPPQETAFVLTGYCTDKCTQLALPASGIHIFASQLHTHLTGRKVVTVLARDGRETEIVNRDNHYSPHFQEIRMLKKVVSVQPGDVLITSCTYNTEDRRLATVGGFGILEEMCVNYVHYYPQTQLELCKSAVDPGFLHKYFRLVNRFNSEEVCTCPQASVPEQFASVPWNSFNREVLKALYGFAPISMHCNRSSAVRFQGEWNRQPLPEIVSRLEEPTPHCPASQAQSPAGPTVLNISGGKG
Method: Listed in Table III are the compounds of the invention that were tested for in vitro DBH inhibition by a standard procedure for assaying conversion of tyramine to octopamine in the presence of DBH. J. J. Pisano, et al., Biochim. Biophys. Acta, 43, 566-568 (1960). Octopamine was assayed following sodium periodate oxidation to p-hydroxybenzaldehyde by measuring spectrophotometric absorbance at 330 nm.

[3] = system: DBH; conditions: significance of the observation is uncertain; cited from earlier work

Row | Structure (SMILES) | time after treatment to significant blood pressure reductions [1] [min] | IC50 [2] [µM] | DBH levels in treated patients [3]
1 | Fc1cc(F)cc(CN2CCN=C2S)c1 [1-(3,5-Difluorobenzyl)-2-mercaptoimidazoline] | ≤ 30 | 1.2 | 
2 | S=C1NCCN1Cc1ccccc1 [1-Benzyl-2-mercaptoimidazoline] |  | 10 | 
3 | CC(N)(Cc1ccc(O)c(O)c1)C(=O)O (stereo not drawn) [alpha-methyl-DOPA] |  |  | lowered DBH levels
4 | COC(=O)[C@H]1[C@H]2C[C@@H]3c4[nH]c5cc(OC)ccc5c4CCN3C[C@H]2C[C@@H](OC(=O)c2cc(OC)c(OC)c(OC)c2)[C@@H]1OC [reserpine] |  |  | lowered DBH levels
